Laboratory results as given in US9045463B2, “Phenyl ethynyl derivatives as hepatitis C virus inhibitors” (Janssen R&D Ireland, priority 2009, dated 2015).

Each compound was assayed on HCV replicon (wild type NS3-NS5B regions of HCV type 1b) in Huh-7 luc/neo cells (assay: HCV replicon assay (Huh-Luc cells, luciferase read-out)). Settings: Hepatitis C virus, Huh-7, 72 h, three days incubation, luciferase activity.
Type: cell-based
Text: The in vitro antiviral activity against HCV of the compounds of formula I can be tested in a cellular HCV replicon system based on Lohmann et al. (1999) Science 285:110-113, with the further modifications described by Krieger et al. (2001) Journal of Virology 75: 4614-4624 (incorporated herein by reference), which is further exemplified in the examples section. This model, while not a complete infection model for HCV, is widely accepted as the most robust and efficient model of autonomous HCV RNA replication currently available. It will be appreciated that it is important to distinguish between compounds that specifically interfere with HCV functions from those that exert cytotoxic or cytostatic effects in the HCV replicon model, and as a consequence cause a decrease in HCV RNA or linked reporter enzyme concentration. Assays are known in the field for the evaluation of cellular cytotoxicity based for example on the activity of mitochondrial enzymes using fluorogenic redox dyes such as resazurin. Furthermore, cellular counter screens exist for the evaluation of non-selective inhibition of linked reporter gene activity, such as firefly luciferase. Appropriate cell types can be equipped by stable transfection with a luciferase reporter gene whose expression is dependent on a constitutively active gene promoter, and such cells can be used as a counter-screen to eliminate non-selective inhibitors.
The compounds of formula (I) were examined for inhibitory activity in the HCV replicon. This cellular assay is based on a bicistronic expression construct, as described by Lohmann et al. (1999) Science vol. 285 pp. 110-113 with modifications described by Krieger et al. (2001) Journal of Virology 75: 4614-4624, in a multi-target screening strategy.
In essence, the method was as follows:
The assay utilized the stably transfected cell line Huh-7 luc/neo (hereafter referred to as Huh-Luc). This cell line harbors an RNA encoding a bicistronic expression construct comprising the wild type NS3-NS5B regions of HCV type 1b translated from an Internal Ribosome Entry Site (IRES) from encephalomyocarditis virus (EMCV), preceded by a reporter portion (FfL-luciferase), and a selectable marker portion (neo^R, neomycine phosphotransferase). The construct is flanked by 5′ and 3′ NTRs (non-translated regions) from HCV type 1b. Continued culture of the replicon cells in the presence of G418 (neo^R) is dependent on the replication of the HCV RNA. The stably transfected replicon cells that express HCV RNA, which replicates autonomously and to high levels, encoding inter alia luciferase, were used for screening the antiviral compounds.
The replicon cells were plated in 384 well plates in the presence of the test and control compounds which were added in various concentrations. Following an incubation of three days, HCV replication was measured by assaying luciferase activity (using standard luciferase assay substrates and reagents and a Perkin Elmer ViewLux™ ultraHTS microplate imager). Replicon cells in the control cultures have high luciferase expression in the absence of any inhibitor. The inhibitory activity of the compound on luciferase activity was monitored on the Huh-Luc cells, enabling a dose-response curve for each test compound. EC50 values were then calculated, which represent the amount of compound required to decrease the level of detected luciferase activity by 50%, or more specifically, to reduce the ability of the genetically linked HCV replicon RNA to replicate.
With `O=C(Nc1ccccc1)N1CCC[C@H]1c1ncc(C#Cc2ccc(-c3cnc([C@@H]4CCCN4C(=O)Nc4ccccc4)[nH]3)cc2)[nH]1` [Compound 3] the EC50 was 810 nM. For `CC(C)[C@@H](C(=O)N1CCC[C@H]1c1ncc(C#Cc2ccc(-c3cnc([C@@H]4CCCN4C(=O)[C@H](C(C)C)N(C)C)[nH]3)cc2)[nH]1)N(C)C` [Compound 21], the EC50 was 36 nM. `COC(=O)N[C@H](C(=O)N1CCC[C@H]1c1ncc(C#Cc2ccc(-c3cnc([C@@H]4CCCN4C(=O)[C@@H](NC(=O)OC)C(C)C)[nH]3)cc2)[nH]1)C(C)C` [Compound 28] was tested, and the EC50 was 0.036 nM. In the case of `CC(=O)N[C@@H](C(=O)N1CCC[C@H]1c1ncc(C#Cc2ccc(-c3cnc([C@@H]4CCCN4C(=O)[C@H](NC(C)=O)c4ccccc4)[nH]3)cc2)[nH]1)c1ccccc1` [Compound 32], the EC50 is reported as less than 0.48 nM. `O=C([C@@H](c1ccccc1)N1CCCCC1)N1CCC[C@H]1c1ncc(C#Cc2ccc(-c3cnc([C@@H]4CCCN4C(=O)[C@@H](c4ccccc4)N4CCCCC4)[nH]3)cc2)[nH]1` [Compound 37] showed an EC50 of 0.03 nM. In the case of `O=C(Cc1cccnc1)N1CCC[C@H]1c1ncc(C#Cc2ccc(-c3cnc([C@@H]4CCCN4C(=O)Cc4cccnc4)[nH]3)cc2)[nH]1` [Compound 2], the EC50 is reported as 1.5 nM. For `O=C(CC1CCCCC1)N1CCC[C@H]1c1ncc(C#Cc2ccc(-c3cnc([C@@H]4CCCN4C(=O)CC4CCCCC4)[nH]3)cc2)[nH]1` [Compound 4], the EC50 was 130 nM. `CNC(=O)N[C@H](C(=O)N1CCC[C@H]1c1ncc(C#Cc2ccc(-c3cnc([C@@H]4CCCN4C(=O)[C@@H](NC(=O)NC)C(C)C)[nH]3)cc2)[nH]1)C(C)C` [Compound 36] gave an EC50 of 0.69 nM.
